Laboratory results published in patent publication US20260078130A1, “NAMPT MODULATORS, PREPARATIONS, AND USES THEREOF” (SIRONAX LTD., priority 2022, published 2026).
Like-named read-outs stand apart in the source and are kept apart here.

Assays:
[1] = molecular target: T1, human enzyme NAMPT (full length) (Homo sapiens, UniProt P43490); test: NMN fluorescence biochemical assay (stimulation of NMN synthesis by NAMPT); conditions: for EC50: concentration giving half-maximal activation, read-out: Enzymatic EC50; for Enzymatic Emax: fold change of maximal activation compared to DMSO
T1 construct: human enzyme NAMPT (full length)
Procedure, shortened: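 Full-length human NAMPT (100 nM) was preincubated 15 min at 37 °C with compound in 50 mM Tris-HCl pH 7.5, 10 mM MgCl2, 2 mM DTT, then reacted 1 h at 37 °C with 50 μM NAM, 100 μM PRPP, 4 mM ATP (stated solution concentrations). NMN was derivatised with acetophenone/KOH then formic acid and read at Ex/Em 382/445 nm; EC50 and Emax (fold over DMSO) reported.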

[2] = test system: endogenous NAMPT in U2OS cells; test: Cellular NAD+ modulation assay (NAD/NADH-Glo, U2OS cells); format: cell-based; conditions: Homo sapiens; for maximal fold induction: read-out: Cellular Emax
Procedure, shortened: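 Endogenous NAMPT stimulation in U2OS cells treated with compound dilution series for 24 h at 37 °C. Cells lysed with DTAB base, acid-treated 15 min at 60 °C, neutralized, NAD+ read by NAD/NADH-Glo luminescence after 40 min at room temperature. EC50 and Emax (fold over DMSO) derived.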

[3] = 24 hours incubation with compound
[4] = NMN fluorescence assay, purified human NAMPT 100 nM
[5] = 24 hours incubation, cellular NAD+

T1 sequence (P43490 whole entry): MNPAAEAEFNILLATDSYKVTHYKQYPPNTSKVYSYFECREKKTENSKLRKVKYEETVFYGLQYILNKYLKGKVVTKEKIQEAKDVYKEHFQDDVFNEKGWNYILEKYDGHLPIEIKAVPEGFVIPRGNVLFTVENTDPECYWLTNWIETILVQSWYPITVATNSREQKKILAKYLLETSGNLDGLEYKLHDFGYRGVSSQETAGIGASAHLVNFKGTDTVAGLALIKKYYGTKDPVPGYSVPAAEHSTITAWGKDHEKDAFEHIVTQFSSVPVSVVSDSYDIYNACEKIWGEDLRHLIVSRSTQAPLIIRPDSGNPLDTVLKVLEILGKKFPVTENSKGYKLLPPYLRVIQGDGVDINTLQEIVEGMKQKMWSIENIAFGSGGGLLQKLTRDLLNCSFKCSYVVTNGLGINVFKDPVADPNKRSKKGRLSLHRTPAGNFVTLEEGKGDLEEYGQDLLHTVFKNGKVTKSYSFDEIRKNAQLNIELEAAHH

| Structure (SMILES) | EC50 ([1]; NMN synthesis by purified human NAMPT (100 nM)) | Enzymatic Emax [1] | EC50 [2, 3] | EC50 [1, 4] | EC50 [2, 5] | maximal fold induction [2, 3] | maximal fold induction [2, 5] |
| --- | --- | --- | --- | --- | --- | --- | --- |
| O=C1c2ccccc2C(Cc2nn(C3COC3)cc2Cl)N1Cc1ccc2[nH]nnc2c1 (stereo not drawn) [Compound 318, 2-((1H-benzo[d][1,2,3]triazol-5-yl)methyl)-3-((4-chloro-1-(oxetan-3-yl)-1H-pyrazol-3-yl)methyl)isoindolin-1-one] | < 500 nM | A (A>3) | < 500 nM | – | – | > 1.5 | – |
| O=C1c2ccccc2C(Cc2ncccc2Br)N1Cc1ccc(=O)[nH]c1 (stereo not drawn) [Compound 322, 3-((3-bromopyridin-2-yl)methyl)-2-((6-oxo-1,6-dihydropyridin-3-yl)methyl)isoindolin-1-one] | – | A (A>3) | – | 500 to 5000 nM | 500 to 5000 nM | – | > 1.5 |
| Cn1ncc(Cl)c1CC1c2cc(C#N)ccc2C(=O)N1Cc1ccc2[nH]nnc2c1 (stereo not drawn) [Compound 327, 2-((1H-benzo[d][1,2,3]triazol-5-yl)methyl)-3-((4-chloro-1-methyl-1H-pyrazol-5-yl)methyl)-1-oxoisoindoline-5-carbonitrile] | – | A (A>3) | – | 500 to 5000 nM | < 500 nM | – | 1.2 to 1.5 |
| O=C1c2ccccc2C(Cc2ncccc2Br)N1CC1CCc2[nH]nnc2C1 (stereo not drawn) [Compound 332, 3-((3-bromopyridin-2-yl)methyl)-2-((4,5,6,7-tetrahydro-1H-benzo[d][1,2,3]triazol-5-yl)methyl)isoindolin-1-one] | – | A (A>3) | – | 500 to 5000 nM | < 500 nM | – | > 1.5 |
| Cn1nnc(Cl)c1CC1c2ccccc2C(=O)N1Cc1ccc2[nH]nnc2c1 (stereo not drawn) [Compound 334, 2-((1H-benzo[d][1,2,3]triazol-5-yl)methyl)-3-((4-chloro-1-methyl-1H-1,2,3-triazol-5-yl)methyl)isoindolin-1-one] | – | A (A>3) | – | 500 to 5000 nM | < 500 nM | – | > 1.5 |
| Cn1nc(Cl)c(CC2c3ccccc3C(=O)N2Cc2ccc3[nH]nnc3c2)n1 (stereo not drawn) [Compound 335, 2-((1H-benzo[d][1,2,3]triazol-5-yl)methyl)-3-((5-chloro-2-methyl-2H-1,2,3-triazol-4-yl)methyl)isoindolin-1-one] | – | A (A>3) | – | 500 to 5000 nM | < 500 nM | – | > 1.5 |
| Cn1ncc(Cl)c1CC1c2c(Cl)cccc2C(=O)N1Cc1ccc2[nH]nnc2c1 (stereo not drawn) [Compound 339, 2-((1H-benzo[d][1,2,3]triazol-5-yl)methyl)-4-chloro-3-((4-chloro-1-methyl-1H-pyrazol-5-yl)methyl)isoindolin-1-one] | – | A (A>3) | – | 500 to 5000 nM | 500 to 5000 nM | – | > 1.5 |
| Cn1ncc(Cl)c1CC1c2cccc(F)c2C(=O)N1Cc1ccc2[nH]nnc2c1 (stereo not drawn) [Compound 342, 2-((1H-benzo[d][1,2,3]triazol-5-yl)methyl)-3-((4-chloro-1-methyl-1H-pyrazol-5-yl)methyl)-7-fluoroisoindolin-1-one] | – | A (A>3) | – | < 500 nM | < 500 nM | – | > 1.5 |
| Cn1ncc(Cl)c1CC1c2ccc(Cl)cc2C(=O)N1Cc1ccc2[nH]nnc2c1 (stereo not drawn) [Compound 343, 2-((1H-benzo[d][1,2,3]triazol-5-yl)methyl)-6-chloro-3-((4-chloro-1-methyl-1H-pyrazol-5-yl)methyl)isoindolin-1-one] | – | A (A>3) | – | < 500 nM | < 500 nM | – | > 1.5 |
| Cn1ncc(Cl)c1CC1c2cc(F)ccc2C(=O)N1Cc1ccc2[nH]nnc2c1 (stereo not drawn) [Compound 344, 2-((1H-benzo[d][1,2,3]triazol-5-yl)methyl)-3-((4-chloro-1-methyl-1H-pyrazol-5-yl)methyl)-5-fluoroisoindolin-1-one] | – | A (A>3) | – | 500 to 5000 nM | < 500 nM | – | > 1.5 |
| O=C1c2ccccc2C(Cc2ncccc2Br)N1CCCc1c[nH]nn1 (stereo not drawn) [Compound 347, 2-(3-(1H-1,2,3-triazol-4-yl)propyl)-3-((3-bromopyridin-2-yl)methyl)isoindolin-1-one] | – | A (A>3) | – | 500 to 5000 nM | 500 to 5000 nM | – | > 1.5 |
| Cc1c(CN2C(=O)c3ccccc3C2Cc2ncccc2Br)ccc2[nH]c(=O)oc12 (stereo not drawn) [Compound 349, 6-((1-((3-bromopyridin-2-yl)methyl)-3-oxoisoindolin-2-yl)methyl)-7-methylbenzo[d]oxazol-2(3H)-one] | – | A (A>3) | – | 500 to 5000 nM | 5000 to 50000 nM | – | > 1.5 |

The next lines start with results.

| EC50 ([1]; NMN synthesis by purified human NAMPT (100 nM)) | Enzymatic Emax [1] | EC50 [2, 3] | EC50 [1, 4] | EC50 [2, 5] | Structure (SMILES) | maximal fold induction [2, 3] | maximal fold induction [2, 5] |
| --- | --- | --- | --- | --- | --- | --- | --- |
| – | A (A>3) | – | < 500 nM | < 500 nM | Cn1ncc(Cl)c1CC1c2cc(N3CCOCC3)ccc2C(=O)N1Cc1ccc2[nH]nnc2c1 (stereo not drawn) [Compound 324, 2-((1H-benzo[d][1,2,3]triazol-5-yl)methyl)-3-((4-chloro-1-methyl-1H-pyrazol-5-yl)methyl)-5-morpholinoisoindolin-1-one] | – | > 1.5 |
| – | A (A>3) | – | < 500 nM | < 500 nM | Cn1ncc(Cl)c1CC1c2cc(CN3CCOCC3)ccc2C(=O)N1Cc1ccc2[nH]nnc2c1 (stereo not drawn) [Compound 325, 2-((1H-benzo[d][1,2,3]triazol-5-yl)methyl)-3-((4-chloro-1-methyl-1H-pyrazol-5-yl)methyl)-5-(morpholinomethyl)isoindolin-1-one] | – | > 1.5 |
| – | A (A>3) | – | < 500 nM | < 500 nM | Cn1ncc(Cl)c1CC1c2cc(Br)ccc2C(=O)N1Cc1ccc2[nH]nnc2c1 (stereo not drawn) [Compound 326, 2-((1H-benzo[d][1,2,3]triazol-5-yl)methyl)-5-bromo-3-((4-chloro-1-methyl-1H-pyrazol-5-yl)methyl)isoindolin-1-one] | – | > 1.5 |
| – | B (3≥B>2) | – | < 500 nM | < 500 nM | O=C1c2ccccc2C(Cc2ncccc2Br)N1C/C=C/c1c[nH]nn1 (stereo not drawn) [Compound 328, (E)-2-(3-(1H-1,2,3-triazol-4-yl)allyl)-3-((3-bromopyridin-2-yl)methyl)isoindolin-1-one] | – | > 1.5 |
| – | B (3≥B>2) | – | < 500 nM | 5000 to 50000 nM | O=C1c2ccccc2C(Cc2ncccc2Br)N1Cc1cc(F)c2[nH]nnc2c1 (stereo not drawn) [Compound 329, 3-((3-bromopyridin-2-yl)methyl)-2-((7-fluoro-1H-benzo[d][1,2,3]triazol-5-yl)methyl) isoindolin-1-one] | – | > 1.5 |
| – | A (A>3) | – | < 500 nM | 500 to 5000 nM | O=C1c2ccccc2C(Cc2ncccc2Br)N1Cc1ccc2[nH]nnc2c1F (stereo not drawn) [Compound 330, 3-((3-bromopyridin-2-yl)methyl)-2-((4-fluoro-1H-benzo[d][1,2,3]triazol-5-yl)methyl)isoindolin-1-one] | – | > 1.5 |
| – | A (A>3) | – | < 500 nM | < 500 nM | O=C1c2ccccc2C(Cc2ncccc2Br)N1Cc1ccc2[nH]nnc2c1 (stereo not drawn) [Compound 331, 2-((1H-benzo[d][1,2,3]triazol-5-yl)methyl)-3-((3-bromopyridin-2-yl)methyl)isoindolin-1-one] | – | > 1.5 |
| – | A (A>3) | – | < 500 nM | < 500 nM | Cn1ncc(Cl)c1CC1c2cccc(Cl)c2C(=O)N1Cc1ccc2[nH]nnc2c1 (stereo not drawn) [Compound 336, 2-((1H-benzo[d][1,2,3]triazol-5-yl)methyl)-7-chloro-3-((4-chloro-1-methyl-1H-pyrazol-5-yl)methyl)isoindolin-1-one] | – | > 1.5 |
| – | A (A>3) | – | < 500 nM | < 500 nM | Cc1nn(C)c(CC2c3ccccc3C(=O)N2Cc2ccc3[nH]nnc3c2)c1Cl (stereo not drawn) [Compound 337, 2-((1H-benzo[d][1,2,3]triazol-5-yl)methyl)-3-((4-chloro-1,3-dimethyl-1H-pyrazol-5-yl)methyl)isoindolin-1-one] | – | > 1.5 |
| – | A (A>3) | – | < 500 nM | < 500 nM | Cn1ncc(Cl)c1CC1c2c(F)cccc2C(=O)N1Cc1ccc2[nH]nnc2c1 (stereo not drawn) [Compound 338, 2-((1H-benzo[d][1,2,3]triazol-5-yl)methyl)-3-((4-chloro-1-methyl-1H-pyrazol-5-yl)methyl)-4-fluoroisoindolin-1-one] | – | > 1.5 |
| – | A (A>3) | – | < 500 nM | < 500 nM | Cn1ncc(Cl)c1CC1c2ccc(F)cc2C(=O)N1Cc1ccc2[nH]nnc2c1 (stereo not drawn) [Compound 340, 2-((1H-benzo[d][1,2,3]triazol-5-yl)methyl)-3-((4-chloro-1-methyl-1H-pyrazol-5-yl)methyl)-6-fluoroisoindolin-1-one] | – | > 1.5 |
| – | A (A>3) | – | < 500 nM | < 500 nM | Cc1nn(C)c(C#N)c1CC1c2ccccc2C(=O)N1Cc1ccc2[nH]nnc2c1 (stereo not drawn) [Compound 341, 4-((2-((1H-benzo[d][1,2,3]triazol-5-yl)methyl)-3-oxoisoindolin-1-yl)methyl)-1,3-dimethyl-1H-pyrazole-5-carbonitrile] | – | > 1.5 |
